According to US12453722B2, “Maleate of nicotinyl alcohol ether derivative, crystal form thereof, and application thereof” (INSTITUTE OF MATERIA MEDICA, CHINESE ACADEMY OF MEDICAL …, priority 2019, dated 2025):
“And” between values parts separate entries of the source, which are not always exact repeats. Equal entries are not always repeated. Marks after values point to notes of the source that are not given here.

How the values were obtained:
mouse melanoma B16F10 = experiment: In vivo antitumor effect, subcutaneous transplanted tumor model of mouse melanoma B16F10; conditions: for TGI %: B16F10, TGI=(1-T/C)×100 by tumor weight
Protocol: The in vivo antitumor effects of the compound of Example 1 and the compound of Example 2 as PD-L1 inhibitors on mouse melanoma B16F10 were evaluated on the subcutaneous transplanted tumor model of mice.
(§1) Experimental steps: the subcultured B16F10 tumor strain was ground with a homogenizer, washed twice with sterile normal saline and counted, and the cell concentration of tumor cell suspension was adjusted with normal saline to 9×10^6/ml. 0.2 ml of the cell suspension was inoculated into the right armpit of C57BL/6J mice and the day was recorded as day 0. The next day after inoculation, the animals were randomly divided into groups, weighed and administered. The mice in the solvent control group were administrated with 0.5% CMC orally every day. […] The compounds to be tested were administered orally once a day. The animals were weighed and killed during treatment. The tumor tissues were stripped, weighed and photographed. Finally, the tumor inhibition rates were calculated to evaluate the intensity of antitumor effect.
Calculation and statistical method: tumor proliferation inhibition rate TGI (%): TGI=(1-T/C)×100. (T: tumor weight in the treatment group; C: tumor weight in the negative control group). Statistical method: Graphpad was used for data statistical analysis, and One-way ANOVA test was used, * P<0.05, * * P<0.01, * * * P<0.001.

mouse colon cancer MC38 = experiment: In vivo antitumor effect, subcutaneous transplanted tumor model of mouse colon cancer MC38; conditions: for Body weight (g) X ± SD, End / Body weight (g) X ± SD, Start / Tumor weight (g) X ± SD: MC38, C57BL/6J mice; for TGI %: MC38, TGI=(1-T/C)×100 by tumor weight
Protocol: The in vivo antitumor effects of the compound of Example 1 and the compound of Example 2 as PD-L1 inhibitors on mouse colon cancer MC38 were evaluated on the subcutaneous transplanted tumor model of mice.
as §1, with “MC38” for “B16F10”, “9×10^6/ml,” for “9×10^6/ml.”
(§2) Calculation and statistical method: tumor proliferation inhibition rate TGI (%): TGI=(1-T/C)×100. (T: tumor weight in the treatment group: C: tumor weight in the negative control group). Statistical method: Graphpad was used for data statistical analysis, and One-way ANOVA test was used, * P<0.05, * * P<0.01, * * * P<0.001.

[1] = tested on: human lung cancer NCI-H460; experiment: In vivo antitumor effect, human lung cancer NCI-H460 model in NSG mice reconstructed by human immune system; conditions: for Tumor volume X ± SD, Day 1 / Tumor volume X ± SD, Day 20 / Tumor weight (g) X ± SD: NCI-H460, NSG mice with human PBMCs; for TGI %: NCI-H460, TGI=(1-T/C)×100 by tumor weight
Protocol: The in vivo antitumor effects of the compound of Example 1 and the compound of Example 2 as PD-L1 inhibitors were evaluated on the NCI-H460 model of human lung cancer in NSG tumor-bearing mice reconstructed by human immune system. […]
Experimental steps: PBMCs were obtained by isolation of fresh human leukocytes, then inoculated into NSG mice through caudal vein, and each mouse was inoculated with 1×10^7. On the third day. NCI-H460 tumor cells were inoculated into the armpit of mice, and each mouse was inoculated with 1×10^6. After the tumors grew to 100˜300 mm^3, the mice were administered in groups. The mice in the solvent control group were administrated with 0.5% CMC orally every day. […] The compounds to be tested were administered orally once a day. The animals were weighed and killed during treatment. The tumor tissues were stripped, weighed and photographed. Finally, the tumor inhibition rates were calculated to evaluate the intensity of antitumor effect.
as §2

[2] = tested on: pleural mesothelioma (PM); conditions: 25 patients with pleural mesothelioma (PM); cited from earlier work
[3] = Influencing factor test (stability at high temperature, high humidity, illumination); assay type: physicochemical
Protocol: When the temperature rose to the top of DSC endothermic peak (about 175° C.), the weight loss was obvious, which was the weight loss caused by the melting decomposition of the sample. The DSC endothermic peak was the decomposition point of the compound of Example 2. 4.
• (1) Physical and chemical properties • Appearance: white solid • Melting point: 174.68° C.
The compound of Example 2 was stable under the conditions of illumination, high temperature and high humidity.

[4] = log P (physical and chemical properties); assay type: physicochemical
[5] = 80 × 1 mg/kg, intraperitoneal, B16F10, C57BL/6J mice, 1 mg/kg
[6] = 5 × 14 mg/kg, oral once a day, B16F10, C57BL/6J mice
[7] = 10 × 14 mg/kg, oral once a day, B16F10, C57BL/6J mice
[8] = 2.5 × 14 mg/kg, oral once a day

## O=P1(N(CCCl)CCCl)NCCCO1 (stereo not drawn) [CTX, cyclophosphamide]
Mouse melanoma B16F10; [5]
  Body weight (g) X ± SD, End: 19.2 ± 0.8 g and 17.5 ± 0.9 g
  Body weight (g) X ± SD, Start: 16.94 ± 0.43 g and 16.9 ± 0.8 g
Mouse melanoma B16F10; 80 × 1 mg/kg, intraperitoneal, 1 mg/kg
  TGI %: 90% and 70%
Mouse colon cancer MC38; 40 × 1 mg/kg, intraperitoneal
  Body weight (g) X ± SD, End: 21.7 ± 1.4 g
  Body weight (g) X ± SD, Start: 18.8 ± 0.9 g
  Tumor weight (g) X ± SD: 1.30 ± 1.44** g
  TGI %: 67%
Mouse colon cancer MC38; 40 × 2 mg/kg, intraperitoneal
  Body weight (g) X ± SD, End: 24.5 ± 0.9 g
  Body weight (g) X ± SD, Start: 22.0 ± 0.8 g
  Tumor weight (g) X ± SD: 0.17 ± 0.10** g
  TGI %: 90%
[1]; 100 × 1 mg/kg, intraperitoneal
  Tumor volume X ± SD, Day 1: 165.4 ± 22.4
  Tumor volume X ± SD, Day 20: 556.5 ± 81.1
  Tumor weight (g) X ± SD: 0.90 ± 0.15*** g
  TGI %: 66.9%

## Keytruda: first FDA approved PD-1 monoclonal antibody, from Merck
[2]
  disease control rate: 76%
  overall response rate (ORR): 28%

## CC(C)OC(=O)[C@H](CO)NCc1cc(Cl)c(OCc2cccc(-c3ccccc3)c2Br)cc1OCc1cccnc1.Cl.Cl [Example 1, isopropyl (S)-N-[2-(pyridine-3-yl-methoxy)-4-(2-bromo-3-(phenyl)benzyloxy)-5-chlorobenzyl] serinate hydrochloride]
Mouse melanoma B16F10; [6]
  Tumor weight (g) X ± SD: 3.11 ± 0.98* g
Mouse melanoma B16F10; 5 × 14 mg/kg, oral once a day
  TGI %: 11%
Mouse melanoma B16F10; [7]
  Tumor weight (g) X ± SD: 3.04 ± 0.94** g
Mouse melanoma B16F10; 10 × 14 mg/kg, oral once a day
  TGI %: 13%
Mouse colon cancer MC38; 5 × 14 mg/kg, oral once a day
  Tumor weight (g) X ± SD: 3.21 ± 0.28*** g
  TGI %: 18%
Mouse colon cancer MC38; 10 × 14 mg/kg, oral once a day
  Tumor weight (g) X ± SD: 2.86 ± 1.36** g
  TGI %: 27%
[1]; 15 × 14 mg/kg, oral once a day
  Tumor volume X ± SD, Day 1: 161.9 ± 21.0
  Tumor volume X ± SD, Day 20: 1441.4 ± 337.6
  Tumor weight (g) X ± SD: 2.06 ± 0.22 g
  TGI %: 24.7%
[3]; 60° C., 5 days
  Appearance: off white powder
  Melting point (DSC method, ° C.): 118.69 °C
  Purity (%): 99.5%
  Related substances (%): 0.5%
[3]; Illumination, 5 days
  Appearance: transparent bulk
  Purity (%): 96.0%
  Related substances (%): 4.0%
  Stability under illumination conditions: unstable
[3]; Initial
  Appearance: off white powder
  Melting point (DSC method, ° C.): 119.36 °C
  Purity (%): 99.5%
  Related substances (%): 0.5%
[3]; RH 92.5%, 5 days
  Purity (%): 99.5%
[3]; RH 92.5%, 5 days, hydrochloride
  Appearance: colorless viscous liquid
[3]; high humidity of RH92.5%, 5 days
  Moisture absorption: serious moisture absorption
[3]; high temperature of 60° C., 5 days
  Stability under high temperature conditions: stable
[4]
  logP: 2.4

## CC(C)OC(=O)[C@H](CO)NCc1cc(Cl)c(OCc2cccc(-c3ccccc3)c2Br)cc1OCc1cccnc1.O=C(O)/C=C\C(=O)O [Example 2, isopropyl (S)-N-(2-(pyridine-3-yl-methoxy)-4-(2-bromo-3-phenylbenzyloxy)-5-chlorobenzyl) serinate maleate]
Mouse melanoma B16F10; [6]
  Tumor weight (g) X ± SD: 1.39 ± 0.84* g
Mouse melanoma B16F10; 5 × 14 mg/kg, oral once a day
  TGI %: 40%
Mouse melanoma B16F10; [7]
  Tumor weight (g) X ± SD: 1.04 ± 0.66** g
Mouse melanoma B16F10; 10 × 14 mg/kg, oral once a day
  TGI %: 55%
Mouse melanoma B16F10; Tumor model B16F10
  Comparison of tumor inhibition rate at the same dosage: Compound of the Example 2 (maleate) > Compound
Mouse colon cancer MC38; [8]
  Tumor weight (g) X ± SD: 1.13 ± 0.78 g
  TGI %: 34%
Mouse colon cancer MC38; 5 × 14 mg/kg, oral once a day
  Tumor weight (g) X ± SD: 0.42 ± 0.39*** g
  TGI %: 75%
Mouse colon cancer MC38; 10 × 14 mg/kg, oral once a day
  Tumor weight (g) X ± SD: 0.73 ± 0.54** g
  TGI %: 57%
Mouse colon cancer MC38; Tumor model MC38
  Comparison of tumor inhibition rate at the same dosage: Compound of the Example 2 (maleate) > Compound
[1]; 15 × 14 mg/kg, oral once a day
  Tumor volume X ± SD, Day 1: 166.5 ± 24.5
  Tumor volume X ± SD, Day 20: 1405.2 ± 442.9
  TGI %: 30.6%
[1]; Tumor model NSG NCI-H460
  Comparison of tumor inhibition rate at the same dosage: Compound of the Example 2 (maleate) > Compound
[3]; 60° C., 10 days
  Appearance: white
  Chiral impurities (%): 0.2%
  Melting point (DSC method, ° C.): 174.64 °C
  Purity (%): 98.7%
  Related substances (%): 1.3%
[3]; Illumination, 10 days
  Appearance: white
  Chiral impurities (%): 0.2%
  Melting point (DSC method, ° C.): 174.60 °C
  Purity (%): 98.6%
  Related substances (%): 1.4%
[3]; Initial
  Appearance: white
  Chiral impurities (%): 0.2%
  Melting point (DSC method, ° C.): 174.68 °C
  Purity (%): 98.7%
  Related substances (%): 1.3%
[3]; RH 92.5%, 10 days
  Appearance: white
  Chiral impurities (%): 0.2%
  Melting point (DSC method, ° C.): 174.57 °C
  Purity (%): 98.7%
  Related substances (%): 1.3%
[3]; illumination, 60° C., RH 92.5%, 10 days
  Stability under illumination, high temperature and high humidity: stable
[4]
  log P: 3.2
